In patent US7179616B1, “Method for detecting phosphatidylserine on the surface of cells” (University of Notre Dame du Lac, priority 2002, dated 2007):
Entries after “also recorded” stand apart in the source; their conditions may differ.

Assays:
[1] = tested on: membranes that are rich in PS; conditions: cited from earlier work
[2] = tested on: apoptotic cells; conditions: cited from earlier work
[3] = tested on: vesicle membranes containing anionic phospholipids (phosphatidylserine, phosphatidylglycerol, phosphatidic acid); assay: Fluorescence response to vesicle membranes containing anionic phospholipids; format: binding; conditions: more than a few percent of phosphatidylserine, phosphatidylglycerol or phosphatidic acid
Experimental: (§1) Unilamellar vesicles were prepared by initial hydration of a dried lipid film followed by repeated extrusion through polycarbonate membranes having a pore size of 100 nm. Aliquots of vesicle suspension were added to a solution of PSS-380 (1 μM, 3 mL) in HEPES buffer (10 mM) at pH 7.2. The fluorescence emission intensity at 440 nm (ex 380 nm) was measured 15 seconds after the addition of each aliquot.

[4] = tested on: POPC:POPS vesicles; assay: Vesicle fluorescence titration of PSS-380, POPC:POPS vesicles; format: binding; conditions: HEPES 10 mM
Experimental: as §1

[5] = tested on: POPC:POPG (50:50) vesicles; assay: Vesicle fluorescence titration of PSS-380, POPC:POPG vesicles; format: binding; conditions: 50:50, PSS-380 1 μM, HEPES 10 mM, pH 7.2, ex 380, em 440 nm
Experimental: as §1

[6] = tested on: POPC:POPA (50:50) vesicles; assay: Vesicle fluorescence titration of PSS-380, POPC:POPA vesicles; format: binding; conditions: 50:50, PSS-380 1 μM, HEPES 10 mM, pH 7.2, ex 380, em 440 nm
Experimental: as §1

[7] = tested on: 100% POPC vesicles; assay: Vesicle fluorescence titration of PSS-380, zwitterionic POPC vesicles; format: binding
Experimental: as §1

[8] = Fluorescence titration with monodispersed phospholipids; format: binding; conditions: DHPC:DHPS (1:1) titration, micromolar concentrations
Excerpt: (§2) Although the fluorescence emission of PSS-380 increases in the presence of vesicles containing PS, it is unchanged if the PS is monodispersed. […] Titration of PSS-380 with increasing amounts of a DHPC:DHPS (1:1) mixture results in no change in fluorescence intensity. Further evidence that PSS-380 has a weak affinity for DHPS and DHPC in water was gained from ^31P NMR titration experiments. The ^31P signals for phospholipid head groups hardly move upon addition of PSS-380. This is in line with previous studies with PSS-380 showing that it has low affinity for neutral or mono-anionic molecules in water, Ojida, A., Mito-Oka, Y., Inoue, M. A. & Hamachi, I. (2002) J. Am. Chem. Soc., 124, 6256–6258, the entire contents and disclosure of which is hereby incorporated by reference.

[9] = 31P NMR titration with DHPS and DHPC in water; format: binding
Excerpt: as §2

[10] = tested on: erythrocytes; assay: Erythrocyte studies, normal versus scrambled erythrocytes; format: cell-based, human; conditions: PSS-380 1 μM, 5 mM TES, 150 mM NaCl, pH 7.4, 4×10^9 erythrocytes
Experimental: Aliquots (10 μL) containing 4.0×10^9 of normal or “scrambled” erythrocytes were added to a solution of PSS-380 (1 μM, 3 mL) in 5 mM TES, 150 mM NaCl, pH 7.4. The erythrocytes were prepared in the following way. Fresh human blood was collected in ice-cold phosphate-buffered-saline (PBS) containing 10 U/mL of heparin. The samples were centrifuged and the supernatant and the top 10% of the erythrocytes were removed. The wash was repeated two more times. An equal volume of PBS was added to the remaining pellet. The desired number of cells was removed, centrifuged and the supernatant discarded. Four volumes of lysis buffer (0.1×PBS containing 0.1 mM EGTA, 1 mM MgCl2, and 1% BSA, plus 1 mM CaCl2 for “scrambled” erythrocytes only) were added to the pellet. The suspensions were vortexed and the lysed cells were placed on ice. After 2 minutes, the cells were resealed by adding 0.4 volumes (relative to the size of the original pellet) of 10×PBS. The tubes were gently inverted and warmed to 37° C. After 30 minutes, 100 volumes of PBS were added, then the cells were centrifuged into pellets, washed three times, and resuspended in TES buffer for use.

[11] = tested on: Jurkat cells; assay: Single-well bulk fluorescence assay for apoptosis; format: cell-based; conditions: apoptosis induced by camptothecin
Experimental: The ability of PSS-380 to detect cell apoptosis was also examined in the present invention. This was approached in three ways. First, it was assessed whether PSS-380 could be used in a single-well, bulk fluorescence assay for apoptosis. […] Thus, cell apoptosis may be detected qualitatively using PSS-380 in a simple, single-well, bulk fluorecence assay.

[12] = tested on: apoptotic cells; assay: Cell staining and fluorescence microscopy of apoptotic cells; format: cell-based
Experimental: Jurkat E6-1 cells were grown in RPMI 1640 growth media supplemented with 10% fetal bovine serum. MCF-7 cells were grown in DMEM growth media with 10% fetal bovine serum. […] Suspended cells (Jurkat) were grown to a density of 1×10^6 cells/mL. Before staining with annexin V-FITC, the growth media was changed to a binding buffer containing 5 mM TES/145 mM NaCl, 2.5 mM CaCl2, at pH 7.4. The cells were incubated with annexin V-FITC (10 μL of Pharmingen stock solution per mL cell suspension), 7AAD (5 μL of 50 μg/mL stock solution per mL cell suspension), and PSS-380 (20 μL of 1 mM stock solution per mL cell suspension) for 15 minutes at 37° C. The incubation mixture was aspirated and changed to a buffer containing 5 mM TES, 145 mM NaCl, pH 7.4. At this point, the Jurkat cell suspensions were added to 16-well chamber-slides. Cells were observed directly on an Axiovert S100 TV microscope (Carl Zeiss) equipped with filter sets DAPI/Hoechst/[…]/Bodipy/Fluo3/DiO, Cy3 (Chroma). Pictures were taken using a black and white digital camera and colored afterwards using Photoshop 6.0 software package (Adobe). Fluorescence microscopy was also used to evaluate if PSS-380 could identify sub-populations of live, apoptotic, and dead cells. Cell apoptosis was induced by treatment with camptothecin, or the calcium ionophore A23187. The drug-treated cells and untreated control cells were subsequently stained with a mixture of annexin V-FITC (green), PSS-380 (blue) and 7AAD (red). FIGS. 5, 6 and 7 display typical microscopic images produced using this method. Live cells are not stained by any of the dyes; whereas, staining by 7AAD identifies dead cells with permeable membranes. Cells that are only stained by annexin V-FITC or PSS-380 are defined as apoptotic. The microscopic images show a slight statistical variation in cell staining, due in part to the fact that PSS-380 and annexin V-FITC are competing for the same cell surface binding sites. If the staining experiments are repeated using either annexin V or PSS-380 alone, the emission from positive cells is more homogeneous and with similar intensity.

[13] = tested on: Jurkat cells; assay: Toxicity of PSS-380, flow cytometry with PI; format: cell-based; conditions: 100 μM, one hour
Experimental: Tests were performed to establish the toxicity of PSS-380.

[14] = in water; cited from earlier work

In the case of annexin V: 35 Kd PS-binding protein, the “incubation time required for complete binding” value [1] is given as “up to one hour”, the “association constant for binding to membranes that are rich in PS” value ([1]; in the presence of sufficient calcium) is given as “around 10^8 M^−1” and the “signal difference between normal cells and apoptotic cells” value [2] is given as “up to 100 fold”.

For CCCCN1C(=O)C(=C/C=C/C=C2\Oc3ccccc3N2CCCS(=O)(=O)[O-])C(=O)N(CCCC)C1=S.[Na+] [MC540], the “signal difference between normal cells and apoptotic cells” value [2] is listed as “about five fold”.

With “anthracene zinc dipicolylamine [AZD, reference compound]” the “change in fluorescence intensity with vesicle membranes containing anionic phospholipids” value [3] was “hardly changed”.

For O=[N+]([O-])[O-].O=[N+]([O-])[O-].O=[N+]([O-])[O-].O=[N+]([O-])[O-].[Zn+2].[Zn+2].c1ccc(CN(Cc2ccccn2)Cc2c3ccccc3c(CN(Cc3ccccn3)Cc3ccccn3)c3ccccc23)nc1 [PSS-380], the “change in fluorescence intensity, POPC:POPS 50:50 vesicles” value ([4]; 50:50, PSS-380 1 μM, pH 7.2, ex 380, em 440 nm) was “ten-fold increase”, the “change in fluorescence emission, vesicles containing 5 mol % of POPS” value ([4]; POPC:POPS 95:5, PSS-380 1 μM, pH 7.2) was “four-fold rise” and the “change in fluorescence intensity, POPC:POPG vesicles” value [5] was “eleven-fold increase”. The “change in fluorescence intensity, POPC:POPA vesicles” value [6] was “six-fold increase”, the “affinity with membranes composed only of zwitterionic phospholipids” value [7] was “no apparent affinity” and the “change in fluorescence after addition of zwitterionic POPC vesicles” value ([7]; PSS-380 1 μM, HEPES 10 mM, pH 7.2, ex 380, em 440 nm) was “not affected; also recorded: No change”. The “change in fluorescence intensity with vesicle membranes containing anionic phospholipids” value [3] was “increases up to ten-fold”, the “change in fluorescence intensity with monodispersed phospholipids” value [8] was “not affected; also recorded: no change” and the “movement of 31P signals for phospholipid head groups upon addition of sensor” value [9] was “hardly move”. The “fluorescence induced by scrambled erythrocytes compared to equal number of normal erythrocytes” value [10] was “much higher”, the “emission in presence of apoptotic Jurkat cells versus equal number of live cells” value [11] was “twice as intense (±5%)” and the “effect of the presence of Ca^2+ on binding to apoptotic cells” value [12] was “not noticeably inhibited”. The “speed of binding to apoptotic cells” value [12] was “almost instantaneous”, the “staining after treatment with 10 mM EDTA” value ([12]; 10 mM EDTA) was “fades rapidly” and the “staining intensity compared with annexin V” value ([12]; microscopy data) was “more intense than annexin V”. The “change in cell viability, judged by PI staining” value [13] was “no change in cell viability” and the “association constant for phosphorylated compounds like phosphotyrosine” value [14] was “around 10^7 M^−1”.

In the case of CCCCN(CCCC)c1ccc(/C=C/c2cc[n+](CCC[N+](CC)(CC)CC)cc2)cc1.[Br-].[Br-] [FM1-43], the “signal difference between normal cells and apoptotic cells” value [2] is listed as 6–10 fold.
